Experimental data: patent US20090253794A1, “Fibroblast Activator, Collagen Production Promoter, Collagen Contraction Promoter, Hyaluronic Acid Production Promoter, ATP Production Promoter, Melanin Formation Inhibitor, and Agent for External Application to the Skin” (priority 2005, published 2009)
Marks after values point to notes of the source that are not given here.

Key:
[1] = test system: B16 melanoma cells; test: melanin formation suppression test, visual whitening and cell mass volume; type: cell-based, mouse; design: key to level of whitening: whitening high→++; whitening moderate→+; somewhat whitened→+−; no whitening→−; conditions: 5 days; for level of whitening: visual evaluation; for change in cell mass volume: visual, cytotoxicity index
Description: A melanin formation suppression test was performed as follows using mouse melanoma cells. First, 2×10^4 B16 melanoma cells were plated in a 35 mm diameter dish containing Eagle's minimum nutrition medium (3 ml) supplemented with 10% (v/v) fetal bovine serum, and cultured in a carbon dioxide incubator adjusted to 5% (v/v) carbon dioxide gas at 37° C. for about 24 hr. Then, pure water or a sample dissolved in pure water was added thereto to a final concentration of 0.1 mM, 1.0 mM or 10 mM. As a positive control, kojic acid (manufactured by Sigma Ltd.) was added to the same concentration. The cells were cultured for 5 more days under the same conditions, treated with trypsin, and centrifuged to collect the cells in a 1.5 ml Eppendorf. The level of whitening of the cells was visually evaluated, and indicated: whitening high→++; whitening moderate→+; somewhat whitened→+−; no whitening→−. Simultaneously, changes in the cell mass volume was visually evaluated and used as a cytotoxicity index.

[2] = test system: normal human skin fibroblasts; test: ATP production promotion (ATP Lite luminescence); type: cell-based; conditions: for ATP amount (average ATP amount without addition of sample is 100): 48 hr, n = 4, mean ± standard deviation
Description: The evaluation was performed according to the following procedure. Normal human skin fibroblasts (manufactured by KURABO INDUSTRIES LTD.) were plated on a 96 well microplate at 2.0×10^4 cells per well. As the medium for plating, commercially available Medium 106S (manufactured by KURABO INDUSTRIES LTD.) containing 2% FBS, heparin 10 μg/ml and hydrocortisone 1 μg/ml was used. After culture for 24 hr, the medium was changed to a medium supplemented with various concentrations of conagenin, and the cells were cultured for 48 hr.
Then, the medium was removed from the 96 well microplate, and the amount of ATP synthesized in the cell was measured using a ATP measurement kit (ATP Lite, manufactured by PerkinElmer, Inc.). That is, the cells were washed with PBS(−), the cell membrane was lysed with a Lysis solution, a luminescence substrate was added, and the mixture was transferred to a black 96 well microplate (View Plate). The chemical luminescence was measured with a luminometer. The effect of the sample was evaluated using, as an index, the average ATP amount without addition of the sample as 100. For statistical processing, parametric multiple comparison (Dunnett Type) relative to control group without addition of the sample was performed, wherein a risk rate of less than 5% is indicated with *, a risk rate of less than 1% is indicated with ** and a risk rate of less than 0.1% is indicated with ***.

[3] = test system: normal human skin fibroblasts; test: collagen gel contraction promoting effect; type: cell-based; conditions: one week, negative control = 1
Description: A collagen solution (collagen was used trade name I-AC manufactured by KOUKEN Co., Ltd.) dissolved in normal human skin fibroblasts (manufactured by KURABO INDUSTRIES LTD., 1×10^5 cells/ml) was prepared on ice according to the explanation insert attached to the product, and the collagen was gelled in 6 wells at 37° C. Thereafter, 0.25% FBS/DMEM medium containing a sample ([…]) was added. The gel was detached from the dish wall, and the level of contraction of the gelled collagen was examined. As a positive control, DMEM medium containing 10% FBS instead of 0.25% FBS was used. The medium was changed every 2 days and, one week later, the medium was removed by suction. The diameter of the collagen gel was measured, the area was calculated, and the area ratio was compared to that of the negative control as 1.

[4] = test system: mouse B16 melanoma strain; test: melanin formation amount after L-DOPA incubation (absorbance 495 nm), cells of Example 7; type: cell-based; conditions: FIG. 1; cells of Example 7 (0.1, 1.0, 10 mM); absorbance at 495 nm
Description: To the cells recovered in Example 7 was added 100 μl of cell suspension (PBS buffer containing Triton X-100 at 0.1% (v/v)). After thorough suspending, the suspension was stood at 4° C. for 1 hr. Thereto was added 100 μl of 10 mM L-DOPA (manufactured by Nacalai Tesque), and the mixture was incubated at 37° C. for 1 hr. Thereafter, the absorbance at 495 nm was measured by a plate reader (multiscanplus MKII, manufactured by Japan Flow Laboratory), and the melanin formation amount was measured.

## C[C@@H]([C@@H](C)O)[C@@H](O)C(=O)N[C@@](C)(CO)C(=O)O [conagenin, (2S)—N-[(2R,3S,4R)2,4-dihydroxy-3-methyl-pentanoyl]-2-methylserine]
[1]; 0.1 mM
  level of whitening: +
  change in cell mass volume: none
[1]; 1 mM
  level of whitening: ++
  change in cell mass volume: none
[1]; 10 mM
  level of whitening: ++
  change in cell mass volume: none
[2]; 0.20 μM
  ATP amount (average ATP amount without addition of sample is 100): 120 ± 18
[2]; 0.39 μM
  ATP amount (average ATP amount without addition of sample is 100): 146 ± 30***
[2]; 0.78 μM
  ATP amount (average ATP amount without addition of sample is 100): 128 ± 8*
[2]; 1.56 μM
  ATP amount (average ATP amount without addition of sample is 100): 133 ± 8**
[2]; 3.13 μM
  ATP amount (average ATP amount without addition of sample is 100): 150 ± 20***
[2]; 6.25 μM
  ATP amount (average ATP amount without addition of sample is 100): 155 ± 26***
[2]; 12.5 μM
  ATP amount (average ATP amount without addition of sample is 100): 160 ± 7***
[2]; 25 μM
  ATP amount (average ATP amount without addition of sample is 100): 153 ± 4***
[2]; 50 μM
  ATP amount (average ATP amount without addition of sample is 100): 168 ± 13***
[2]; 100 μM
  ATP amount (average ATP amount without addition of sample is 100): 164 ± 16***
[2]; Dunnett comparison with the group without addition
  concentration at which a statistically significant ATP production promoting action was observed: not less than 0.39 μM
[3]; 1 μM in 0.25% FBS/DMEM
  collagen gel area ratio: 0.47
[3]; 100 μM in 0.25% FBS/DMEM
  collagen gel area ratio: 0.44
[3]; 5 mM in 0.25% FBS/DMEM
  collagen gel area ratio: 0.42
[4]
  melanin formation amount: suppresses melanin formation at a low concentration
